Laboratory results taken from paper PMC3115501 (Archives of biochemistry and biophysics, 2011).
Marks after values point to notes of the source that are not given here.

Legend:
CYP3A4 [1] = settings: cited from earlier work
CYP3A4 [2] = molecular target: T1, CYP3A4 (Homo sapiens, UniProt P08684, S18F); settings: cited from earlier work
3A4 = 3A4 in the presence of testosterone, reduction by NADPH/P450 reductase; cited from earlier work
CYP3A4 [3] = molecular target: T1, CYP3A4; assay: Redox potential measurements by cyclic voltammetry of purified CYP3A4; settings: 11 μM 3A4 complexed with 200 μM TST or 100 μM compound 1

SMILES	kcat (CYP3A4 [1]) [s⁻¹]	rate of dissociation from the low-spin complex (CYP3A4 [2]) [s⁻¹]	reduction rate, reported value (3A4) [s⁻¹]	ks (rate of electron transfer / rate constant for reduction) (CYP3A4 [3]) [s⁻¹]	α (electron transfer coefficient) (CYP3A4 [3])	E^0 (formal potential) (CYP3A4 [3]; Equation 1)	ΔEp, ½ (CYP3A4 [3]; equation 2)	ks (rate of electron transfer / rate constant for reduction) (CYP3A4 [3]; listed as TST) [s⁻¹]
CCC(C)n1ncn(-c2ccc(N3CCN(c4ccc(OCC5COC(Cn6cncn6)(c6ccc(Cl)cc6Cl)O5)cc4)CC3)cc2)c1=O (centres unmarked) [Itraconazole, itraconazole]	0.0045	0.002	–	–	–	–	–	–
C[C@]12CC[C@H]3[C@@H](CCC4=CC(=O)CC[C@@]43C)[C@@H]1CC[C@@H]2O [Testosterone]	–	–	21	5.6	0.396	-189 (3) ^e mV	157 (6) mV	5.56
